# Tests used:
# [1] = biological target: T1, RelMtb (truncated, residues 53 to 446) (Mycobacterium tuberculosis, UniProt P9WHG9); assay: RelMtb enzymatic fluorescence polarization; type: biochemical
# T1 sequence (P9WHG9 1-394): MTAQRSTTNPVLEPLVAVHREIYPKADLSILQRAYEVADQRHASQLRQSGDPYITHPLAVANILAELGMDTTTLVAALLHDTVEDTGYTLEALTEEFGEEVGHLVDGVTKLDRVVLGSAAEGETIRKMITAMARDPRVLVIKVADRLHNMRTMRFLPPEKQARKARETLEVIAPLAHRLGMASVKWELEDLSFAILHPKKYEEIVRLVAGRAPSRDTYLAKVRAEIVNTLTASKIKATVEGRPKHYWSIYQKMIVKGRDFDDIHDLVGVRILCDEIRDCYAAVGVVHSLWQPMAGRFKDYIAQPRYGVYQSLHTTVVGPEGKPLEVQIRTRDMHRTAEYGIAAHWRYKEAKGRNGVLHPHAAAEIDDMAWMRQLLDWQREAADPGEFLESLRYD
# [2] = test system: WT H37Rv; parameters: species or system Mycobacterium tuberculosis; details: in vivo
# [3] = test system: nutrient-starved empty vector control (CDC1551); type: cell-based, Mycobacterium tuberculosis; details: INH 15.36 μg/ml, 7 days of exposure
# [4] = test system: rel Comp; parameters: species or system Mycobacterium tuberculosis; details: in vivo
# [5] = test system: Mtb following exposure to NS; details: cited from earlier work
# [6] = test system: rel Comp (relMtb-complemented strain); type: cell-based, Mycobacterium tuberculosis
# [7] = test system: Δrel (H37Rv deficient in Rv2583c/relMtb); type: cell-based, Mycobacterium tuberculosis; details: nutrient-rich broth
# [8] = test system: Δrel; parameters: species or system Mycobacterium tuberculosis; details: in vivo
# [9] = test system: relMtb-deficient Mtb; details: nutrient-rich broth; cited from earlier work
# [10] = test system: WT Mtb H37Rv; type: cell-based, Mycobacterium tuberculosis
compound,measurement,setting,value
Nc1nc2c(ncn2[C@@H]2O[C@H](COP(=O)(O)OP(=O)(O)OP(=O)(O)O)C[C@H]2O)c(=O)[nH]1 [3′-dGTP],IC50,[1],4 mM
"Nc1ncnc2c1ncn2[C@@H]1O[C@H](COP(=O)(O)CP(=O)(O)OP(=O)(O)O)[C@@H](O)[C@H]1O [AMPCPP, α,β-methylene analogue of ATP]",IC50,[1],6.2 mM
Nc1nc2c(ncn2[C@@H]2O[C@H](COP(=O)(O)OP(=O)(O)OP(=O)(O)OP(=O)(O)OC[C@H]3O[C@@H](n4cnc5c(N)ncnc54)[C@H](O)[C@@H]3O)[C@@H](O)[C@H]2O)c(=O)[nH]1 [AP4G],IC50,[1],1.8 mM
"NNC(=O)c1ccncc1 [INH, isoniazid]",reduction of lung bacillary burden relative to the start of treatment,[2],0.11 log10
same,mean reduction of bacterial density (CFU/ml),[3],1.43 log10 CFU
same,reduction of lung bacterial load,[4],0.48 log10
same,fold increase in the MBC of INH,[5],> 100 fold
same,fold increase of MBC of INH,[6]; 7 days of NS versus nutrient-rich broth,512 fold
same,fold decrease of MBC of INH,"[6]; 7 days of NS, in the presence of 4 μM X9",16 fold
same,MBC of INH (concentration required to kill 99%),[6]; nutrient-rich broth,0.06 µg/mL
same,MBC of INH (concentration required to kill 99%),[7],0.06 µg/mL
same,bacilli killed in the lungs during 2 weeks of treatment,[8],2.03 log10
same,MIC against relMtb-deficient Mtb compared with the WT strain,[9],the same as that against the WT strain
same,MBC of INH (concentration required to kill 99%),[10],0.06 µg/mL
same,fold decrease of MBC of INH,[10],16 fold
same,fold increase of MBC of INH,[10],512 fold
CO[C@H]1/C=C/O[C@@]2(C)Oc3c(C)c(O)c4c(O)c(c(/C=N/N5CCN(C)CC5)c(O)c4c3C2=O)NC(=O)/C(C)=C\C=C\[C@H](C)[C@H](O)[C@@H](C)[C@@H](O)[C@@H](C)[C@H](OC(C)=O)[C@@H]1C [rifampin],MIC against relMtb-deficient Mtb compared with the WT strain,[9],the same as that against the WT strain
